{"source": "patent US20080234232A1", "about": "“Methods and compositions for targeting AFAP” (priority 2007, published 2008)", "key": {"cSrc": {"tested_on": "cSrc", "assay": "Western blot of phospho-Src family (Y416) after PMA treatment", "format": "cell-based, mouse", "conditions": "100 nM PMA 15 min", "experimental": "E) SYF, SYF/cSrc, and p85−/− were treated with 100 nM PMA for 15 minutes, 40 μg cell lysate resolved by SDS-PAGE and western blot analysis performed to evaluate phospho-Src family (Y416)(1:1000) and cSrc (1:500) as described in the methods section. Beta-actin (1:5000) was used as a loading control.\nAll cells were cultured to 70-80% confluence, serum-starved for 16 hours, and treated as described above. The cells were lysed and western analysis performed as previously described (Guappone, A. C. et. al., 1997). Membranes were probed using the following antibodies diluted in 1× Tris-buffered saline plus 0.1% Tween-20 (TBS-T) containing 5% nonfat milk, except were indicated: 1:10000 AFAP-110 pAb (F1), 1:1000 Phospho-Src family Tyrosine 416 (Cell Signal) in 5% BSA, 1:500 cSrc (clone N-16: Santa Cruz Biotechnology), 1:1000 p85α (BD Biosciences), 1:1000 p110α (BD Biosciences), 1:1000 PKCα (BD Biosciences), and 1:5000 β-actin in 1% BSA (Sigma)."}, "PI3K [1]": {"biological_target": "T1, PI3K (Mus musculus, UniProt P42337)", "T1 construct": "a PI3K kinase activity assay performed using anti-p1100α immunoprecipitates; endogenous in cells; host or cells: SYF/cSrc mouse embryo fibroblasts (lysate, anti-p110α immunoprecipitate)", "T1 sequence (P42337 whole entry)": "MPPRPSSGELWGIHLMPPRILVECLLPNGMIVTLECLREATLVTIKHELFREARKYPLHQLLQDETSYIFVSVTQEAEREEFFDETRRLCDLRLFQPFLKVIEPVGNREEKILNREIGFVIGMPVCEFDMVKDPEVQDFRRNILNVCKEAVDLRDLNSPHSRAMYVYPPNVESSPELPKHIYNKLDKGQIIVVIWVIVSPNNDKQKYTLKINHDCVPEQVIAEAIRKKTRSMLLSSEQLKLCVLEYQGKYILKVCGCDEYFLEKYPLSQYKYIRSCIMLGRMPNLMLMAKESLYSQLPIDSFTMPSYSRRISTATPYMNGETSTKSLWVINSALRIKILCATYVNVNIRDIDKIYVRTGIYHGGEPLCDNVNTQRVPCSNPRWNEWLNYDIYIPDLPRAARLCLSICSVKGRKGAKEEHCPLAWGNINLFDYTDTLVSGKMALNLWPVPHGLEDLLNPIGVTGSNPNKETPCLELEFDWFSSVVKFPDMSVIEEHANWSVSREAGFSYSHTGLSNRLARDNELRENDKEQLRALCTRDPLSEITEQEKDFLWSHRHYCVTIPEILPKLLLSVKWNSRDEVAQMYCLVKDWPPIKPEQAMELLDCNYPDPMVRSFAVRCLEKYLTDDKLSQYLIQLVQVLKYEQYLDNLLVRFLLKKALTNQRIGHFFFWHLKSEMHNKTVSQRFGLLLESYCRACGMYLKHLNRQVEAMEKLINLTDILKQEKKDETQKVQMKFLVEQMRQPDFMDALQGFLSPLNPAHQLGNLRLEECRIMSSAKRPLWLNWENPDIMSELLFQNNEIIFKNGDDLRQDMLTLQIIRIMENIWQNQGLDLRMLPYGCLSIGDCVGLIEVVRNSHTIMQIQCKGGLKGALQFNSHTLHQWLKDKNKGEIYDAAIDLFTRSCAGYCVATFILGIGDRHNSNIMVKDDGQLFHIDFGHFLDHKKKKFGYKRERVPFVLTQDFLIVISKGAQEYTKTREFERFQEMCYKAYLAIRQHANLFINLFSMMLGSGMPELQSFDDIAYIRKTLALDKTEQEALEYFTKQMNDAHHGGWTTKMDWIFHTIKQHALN", "T1 sequence (P26450 whole entry partner)": "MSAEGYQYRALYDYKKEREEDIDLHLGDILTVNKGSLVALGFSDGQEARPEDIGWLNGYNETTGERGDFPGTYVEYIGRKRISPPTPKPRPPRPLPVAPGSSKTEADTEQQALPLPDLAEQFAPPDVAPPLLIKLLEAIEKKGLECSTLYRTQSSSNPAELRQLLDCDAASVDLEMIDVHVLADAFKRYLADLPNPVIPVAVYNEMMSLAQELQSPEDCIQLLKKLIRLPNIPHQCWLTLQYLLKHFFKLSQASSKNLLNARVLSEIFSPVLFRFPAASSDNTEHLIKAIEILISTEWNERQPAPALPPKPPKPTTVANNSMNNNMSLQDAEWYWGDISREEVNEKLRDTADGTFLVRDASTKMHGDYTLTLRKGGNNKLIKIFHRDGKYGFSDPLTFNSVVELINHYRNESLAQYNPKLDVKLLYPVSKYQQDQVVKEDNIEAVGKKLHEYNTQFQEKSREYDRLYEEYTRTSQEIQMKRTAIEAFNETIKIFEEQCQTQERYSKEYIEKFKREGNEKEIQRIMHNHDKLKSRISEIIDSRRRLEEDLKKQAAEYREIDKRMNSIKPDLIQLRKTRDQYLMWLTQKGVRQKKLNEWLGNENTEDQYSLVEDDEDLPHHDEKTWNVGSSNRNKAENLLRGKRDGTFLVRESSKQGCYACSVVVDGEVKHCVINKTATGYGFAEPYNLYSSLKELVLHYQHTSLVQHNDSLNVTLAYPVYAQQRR", "assay": "In vitro PI3K kinase assay on anti-p110α immunoprecipitates of treated SYF/cSrc cells", "format": "cell-based", "conditions": "SYF/cSrc cells serum-starved, 100 nM PMA for 5 or 15 minutes", "experimental": "FIG. 3: PMA treatment results in an increase in PI3K activation, in vitro. SYF/cSrc cells were cultured under serum-free conditions for 24 hours. Cells were unstimulated or stimulated with 10% serum (positive control), 100 nM PMA for 5 or 15 minutes. Cells were then lysed in kinase assay buffer and a PI3K kinase activity assay performed using anti-p1100α immunoprecipitates to measure PMA-induced incorporation of [^32p] into phosphoinositide substrates.\nPI3K activity was determined using the In vitro PI3K kinase assay as previously described (Jiang, B. H. et. al., 1998). Cells were serum-starved 24 hours. The media was changed and cells were then treated with either 10% fetal calf serum or 100 nM PMA for 5 or 15 minutes alone or in conjunction with 6 μM bisindolylmaleimide [i] or 10 μM LY294002 for six hours as a negative control. Upon completion of the incubation, the cells were lysed in cold kinase lysis buffer [150 mM NaCl, 100 mM Tris pH 8.0, 1% Triton X-100, 5 mM EDTA, 10 mM NaF, plus inhibitors (1 mg/ml leuptin, 1 mg/ml peptatin, 0.5 M sodium vanadate, 1 mg/ml aprotinin, and 1M DTT)]. Five hundred micrograms (500 μg) of protein was incubated with p110α antibody overnight at 4° C. Forty microliters (40 μl) of protein A/G PLUS agarose beads (50% slurry) was added and incubated for an additional two hours. […]"}, "PI3K [2]": {"tested_on": "PI3K", "assay": "Surrogate markers for PI3K activation in the MEF cell system", "format": "cell-based, mouse", "conditions": "PMA treatment"}}}
{"compound": "CCCCCCCCCCCCCC(=O)O[C@@H]1[C@@H](C)[C@@]2(O)[C@@H](C=C(CO)C[C@]3(O)C(=O)C(C)=C[C@@H]23)[C@@H]2C(C)(C)[C@]12OC(C)=O", "note": "[PMA, Phorbol 12-myristate 13-acetate]", "values": [{"measurement": "tyrosine416 phosphorylation of cSrc", "setting": "cSrc; SYF/cSrc cells", "value": "induced"}, {"measurement": "cSrc activation (western blot)", "setting": "cSrc; mouse embryo fibroblasts lacking the p85 regulatory subunit", "value": "failed to induce"}, {"measurement": "PI3K activity (incorporation of 32P into phosphoinositide substrate)", "setting": "PI3K [1]", "value": "significant increase"}, {"measurement": "Akt phosphorylation on serine 473", "setting": "PI3K [2]", "value": "could induce an increase"}, {"measurement": "stabilization of HIF-1α", "setting": "PI3K [2]", "value": "could induce"}]}
